What was measured:
[1] = Half life was measured at pH 1.0 and at 37 degree Celsius temperature; format: ADME
[2] = Half life was measured […] at 37 degree Celsius temperature by HPLC assay using a c18 reversed-phase column.; format: ADME
[3] = Half life was measured at pH 7.4 and at 37 degree Celsius temperature; format: ADME
[4] = Half life was measured at pH 8.0 and at 37 degree Celsius temperature; format: ADME
[5] = system: Mus musculus; assay: Compound was tested to determine the total amount of penciclovir recovered in the urine over a 48-h period after a single oral dose of 0.2 mmol/kg.; format: functional
[6] = system: Vero; assay: Compound was tested for its antiviral activity against HSV-1(KOS strain) in vero cells; format: functional, cell-based; settings: Chlorocebus sabaeus

Row | SMILES | half-life [1] [h] | half-life [2] [h] | half-life [3] [h] | half-life [4] [h] | Dose (urinary recovery) [5] [%] | EC50 [6] [µM]
1 | CCCC(=O)OCC(CCn1cnc2c(O)nc(N)nc21)COC(=O)[C@@H](N)C(C)C.Cl (some centres undefined) | 33.3 | 122 | 18.4 | 14.1 | 29 | 42
2 | CC(C)C(=O)OCC(CCn1cnc2c(O)nc(N)nc21)COC(=O)[C@@H](N)C(C)C.Cl (some centres undefined) | 47.5 | 120 | 19.1 | 14.4 | 20 | > 100
3 | CCC(C)[C@H](N)C(=O)OCC(CCn1cnc2c(O)nc(N)nc21)COC(=O)[C@@H](N)C(C)CC.Cl.Cl (some centres undefined) | > 168 | 52.9 | 11.4 | 9.8 | 9 | 42.3
4 | CC(C)[C@H](N)C(=O)OCC(CCn1cnc2c(O)nc(N)nc21)COC(=O)[C@@H](N)C(C)C.Cl.Cl | > 168 | 30.9 | 6.7 | 6 | 25 | 25.5
5 | CCC(C)[C@H](N)C(=O)OCC(CCn1cnc2c(O)nc(N)nc21)COC(C)=O.Cl (some centres undefined) | 19.4 | 105 | 24.8 | 19.1 | 15 | > 100
6 | CCC(=O)OCC(CCn1cnc2c(O)nc(N)nc21)COC(=O)[C@@H](N)C(C)C.Cl (some centres undefined) | 19.2 | 104 | 17.3 | 13.6 | 25 | > 100
7 | CC(=O)OCC(CCn1cnc2c(O)nc(N)nc21)COC(=O)[C@@H](N)C(C)C.Cl (some centres undefined) | 19.4 | 108 | 13.2 | 13.2 | 34 | > 100
8 | CCC(C)[C@H](N)C(=O)OCC(CCn1cnc2c(O)nc(N)nc21)COC(=O)C(C)C.Cl (some centres undefined) | 46.5 | 83.5 | 24.9 | 19.4 | 13 | > 100
9 | CCCC(=O)OCC(CCn1cnc2c(O)nc(N)nc21)COC(=O)[C@@H](N)C(C)CC.Cl (some centres undefined) | 34 | 93.7 | 27 | 19.9 | 19 | 24.2
10 | CCC(=O)OCC(CCn1cnc2c(O)nc(N)nc21)COC(=O)[C@@H](N)C(C)CC.Cl (some centres undefined) | 19 | 83.5 | 25 | 19.9 | 20 | > 100
11 | CC(=O)OCC(CCn1cnc2cnc(N)nc21)COC(C)=O [FAMCICLOVIR] | – | – | – | – | 33 | > 100
12 | Nc1nc(O)c2ncn(CCC(CO)CO)c2n1 [PENCICLOVIR] | – | – | – | – | 9 | 8.1

Source: ChEMBL document CHEMBL1129136, “Synthesis and evaluation of amino acid ester prodrugs of penciclovir” (Bioorg Med Chem Lett, 1996)
